The results in this text go back to patent US6518302B1, “Remedies” (Takara Shuzo Co., Ltd., priority 1999, dated 2003).

The structures appear in SMILES notation. Where two headings read alike, the source gives them in different places.

Data set [1] in a line: Conversion into DGE in culture medium (thin-layer chromatography). It counts as in vitro ADME. The note with it: 10 mM in RPMI 1640 medium with 10% calf serum, 37° C., 4 hours. The method, then:
The compound (7) or the compound (9) synthesized in Example 1 was dissolved at a final concentration of 10 mM in RPMI 1640 medium supplemented with 10% calf serum. These samples were allowed to stand at 37° C. for 4 hours. […] each of the samples was then subjected to thin-layer chromatography using chloroform:methanol=5:1 as a developing solvent. Detection was carried out using orcinol-sulfuric acid.
For each sample, a spot with Rf value of 0.5, the same value as that for the compound of general formula IV in which Z is CH2OH and Y is H (L-glycero-1,5-epoxy-1αβ,6-dihydroxy-cis-hex-3-en-2-one, hereinafter referred to as DGE), was detected.

The subject of data set [2] is Human promyelocytic leukemia HL-60 cells. The data set is described as follows: Antiproliferation activity against HL-60 cells (MTT method). It counts as cell-based. The note with it: 48 hour incubation. The method, then: Human promyelocytic leukemia HL-60 cells (ATCC CCL-240) were cultured at 37° C. in RPMI 1640 medium (Gibco) containing 10% of fetal calf serum (JRH Bioscience) which had been treated at 56° C. for 30 minutes, and suspended in the same medium at a concentration of 5000 cells/90 μl. Each 90 μl portion of the suspension was distributed into each well of a 96-well plate (Falcon). To the suspension in each well was added 10 μl of one the following samples, and incubated at 37° C. in the presence of 5% CO2. The samples were 2-, 4-, 8-, 16-, 32-, 64- or 128-dilutions of filter-sterilized 200 mM aqueous solution of the compound (2) obtained in Example 1, 50 mM aqueous solution of the compound (7), 50 mM aqueous solution of the compound (9), 100 mM aqueous solution of the compound (11), 100 mM aqueous solution of the compound (14), 20 mM aqueous solution of the compound (17), 12.5 mM aqueous solution of the compound (19) or 12.5 mM aqueous solution of the compound (21) with sterile water, as well as water. After 48 hour from the initiation of the incubation, the numbers of viable cells calculated based on the absorbance measured according to the MTT method as described in “Apoptosis Jikken Protocol” (Syuzyun-sha, Seiichi Tanuma, ed., pp. 156 (1994)) were compared each other.

The test system of data set [3] is HL-60 (ATCC CCL-240) cells. The data set is described as follows: Apoptosis morphology in HL-60 cells under optical microscope. The conditions noted are these: 24 hours. Format: cell-based, Human. The method, then:
(§1) HL-60 (ATCC CCL-240) cells were cultured at 37° C. in RPMI 1640 medium (Bio Whittaker) containing 10% fetal calf serum (JRH) which had been treated at 56° C. for 30 minutes and suspended in RPMI 1640 medium at a concentration of 2.5×10^5 cells/4.5 ml. […] each of aqueous solutions of the compound (2) at a concentration of 10, 50 or 100 mM, the compound (7) at a concentration of 500, 1000 or 1500 μM, the compound (9) at a concentration of 750, 1500 or 3000 μM, the compound (11) at a concentration of 750, 1500 or 3000 μM, or the compound (14) at a concentration of 750, 1500 or 3000 μM was added to 4.5 ml of the suspension. The mixtures were incubated at 37° C. for 24 hours in the presence of 5% CO2. The cultured cells were examined under an optical microscope.

Data set [4] concerns HL-60 (ATCC CCL-240) cells. The data set is described as follows: Measurement of apoptotic cells using FACScan. It counts as cell-based, Human. The note with it: HL-60 cells, 24 hours. As to the method: as §1, with “CO2. Measurement of apoptotic cells using FACScan as described in Saibo Kogaku, Bessatsu (Cell Technology, Suppl.) Jikken Protocol Series: Apoptosis Jikken Protocol (Experimental Protocol Series: Experimental Protocols for Apoptosis) (Shujun-sha) pp. 129-130 and analysis of DNA fragmentation as described in Bio Manual UP Series: […] Apoptosis Jikken-ho (Bio Manual UP Series: Current Experimental Methods for Apoptosis) (Yodo-sha) pp. 61-63 were carried out using cells” for “CO2. The”, “cultured for 24 or 48 hours in the same manner as that described above.” for “cultured cells were examined under an optical microscope.”

The test system of data set [5] is HL-60 (ATCC CCL-240) cells. The data set is described as follows: Analysis of DNA fragmentation. It counts as cell-based, Human. The note with it: HL-60 cells. The method, then:
as §1, with “CO2. Measurement of apoptotic cells using FACScan as described in Saibo Kogaku, Bessatsu (Cell Technology, Suppl.) Jikken Protocol Series: Apoptosis Jikken Protocol (Experimental Protocol Series: Experimental Protocols for Apoptosis) (Shujun-sha) pp. 129-130 and analysis of DNA fragmentation as described in Bio Manual UP Series: […] Apoptosis Jikken-ho (Bio Manual UP Series: Current Experimental Methods for Apoptosis) (Yodo-sha) pp. 61-63 were carried out using cells” for “CO2. The”, “cultured for 24 or 48 hours in the same manner as that described above.” for “cultured cells were examined under an optical microscope.”

Data set [6] relates to HL-60 (ATCC CCL-240) cells. The data set is described as follows: Viability of HL-60 cells by Trypan Blue staining. The conditions noted are these: Homo sapiens, read-out: Viability50, concentration that results in a viability of 50%. Format: cell-based. The method, then: HL-60 (ATCC CCL-240) cells were cultured at 37° C. in RPMI 1640 medium (Bio Whittaker) containing 10% fetal calf serum (JRH) which had been treated at 56° C. for 30 minutes and suspended in RPMI 1640 medium at a concentration of 2.5×10^5 cells/4.5 ml.
[…] each of aqueous solutions of the compound (2) at a concentration of 10, 50 or 100 mM, the compound (7) at a concentration of 500, 1000 or 1500 μM, the compound (9) at a concentration of 750, 1500 or 3000 μM, the compound (11) at a concentration of 750, 1500 or 3000 μM, or the compound (14) at a concentration of 750, 1500 or 3000 μM was added to 4.5 ml of the suspension. The mixtures were incubated at 37° C. for 24 hours in the presence of 5% CO2.
A portion of the cells cultured for 24 or 48 hours as described in Example 4 was stained with 0.4% Trypan Blue and examined under an optical microscope. The number of viable cells which were not stained and the number of dead cells which were stained blue were counted. The concentration of each of the compounds (2), (7), (9), (11) and (14) that results in a viability of 50% (Viability50 mM) was determined.

`O=C[C@H](O)[C@H]1OC[C@@H](O)[C@@H]1O` [Compound (2), 3,6-anhydro-D-galactose, reference compound]: the “conversion into DGE (spot with Rf value of 0.5, the same value as DGE)” value in data set [1] was “conversion into DGE was also observed”. Moreover, in data set [2], the “antiproliferation activity against HL-60 cells” value was “exhibited antiproliferation activities”. In addition, the IC50 in data set [2] (Homo sapiens, HL-60 cells, read-out: IC50, concentration at which 50% of the proliferation is inhibited) worked out at 860 µM; in data set [6] (24 hours), 18.1 mM; in data set [6] (48 hours), 3.4 mM. The “final concentration at which condensation of nuclei, shrinking of cells and formation of apoptotic bodies were observed” value in data set [3] is at least 5 mM. Besides, in data set [4], the “final concentration at which apoptotic cells were observed” value is at least 5 mM. The figures for the “final concentration at which DNA fragmentation was observed” value in data set [5] (24 hours) and in data set [5] (48 hours) were at least 5 mM and at least 1 mM, respectively.
